The values below come from patent publication US11180496B2 (Daewoong Pharmaceutical Co., Ltd., priority 2017, dated 2021).

Test [1] deals with T1, BTK (Homo sapiens, UniProt Q06187).
T1 construct: purchased Promega
Kind of test: BTK inhibitory activity, ADP-Glo + BTK Kinase enzyme system kit (Promega). Type of test: biochemical. The settings on record: BTK enzyme 1 ng/uL, ATP 10 uM, 15 min preincubation, luminescence, duplicate. On the procedure: (§1) The inhibitory activity against BTK and ITK of the compounds prepared in Examples above were measured as follows.
(§2) The inhibitory activity against BTK was evaluated using ‘ADP-Glo™+BTK Kinase enzyme system’ kit from Promega. […] 5 uL of substrate and 5 uL of ATP prepared at a final concentration of 10 uM were added to all wells of the plate after completion of the reaction, and allowed to react at 30° C. for 1 hour. All wells of the plate after completion of the reaction were treated with 25 uL of ADP-Glo™ reagent and reacted at 30° C. for 40 minutes. Then, 50 uL of the kinase detection buffer was applied to all wells of the plate, and then the light was blocked and reacted at 30° C. for 30 minutes. For the plate for which all reactions were completed, the luminescence was measured and the results were calculated. The evaluation was performed in duplicate. The respective values of negative and positive controls, depending on whether the enzymes were added without treatment of the compound, were determined, and IC50 was calculated based on the values.
Background: In ADP-Glo the light output rises with the ADP produced.

In test [2] the target is T2, ITK (Homo sapiens, UniProt Q08881).
T2 construct: purchased Promega
T2 sequence (Q08881 1-620): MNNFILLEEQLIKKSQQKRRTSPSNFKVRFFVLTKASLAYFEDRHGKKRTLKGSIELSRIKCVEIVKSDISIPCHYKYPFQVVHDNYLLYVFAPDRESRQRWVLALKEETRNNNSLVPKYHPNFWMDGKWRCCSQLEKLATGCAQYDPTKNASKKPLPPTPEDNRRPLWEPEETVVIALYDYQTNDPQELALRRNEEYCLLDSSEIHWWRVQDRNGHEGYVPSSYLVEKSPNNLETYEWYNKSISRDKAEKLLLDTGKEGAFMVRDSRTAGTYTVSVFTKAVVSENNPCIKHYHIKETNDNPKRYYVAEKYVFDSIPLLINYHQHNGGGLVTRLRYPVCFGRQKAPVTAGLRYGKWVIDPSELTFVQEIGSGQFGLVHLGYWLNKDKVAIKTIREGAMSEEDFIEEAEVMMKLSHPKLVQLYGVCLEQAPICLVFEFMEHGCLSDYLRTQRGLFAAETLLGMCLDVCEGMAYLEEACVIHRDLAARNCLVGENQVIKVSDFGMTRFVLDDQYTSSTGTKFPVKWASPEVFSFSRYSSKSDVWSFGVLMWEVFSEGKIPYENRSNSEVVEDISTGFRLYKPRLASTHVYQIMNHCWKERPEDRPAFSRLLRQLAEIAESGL
Kind of test: ITK inhibitory activity, ADP-Glo + ITK Kinase enzyme system kit (Promega). Type of test: biochemical. The settings on record: ITK enzyme 0.4 ng/uL, ATP 25 uM, 15 min preincubation, luminescence, duplicate. How it is done: as §1
as §2, with “ITK” for “BTK”, “‘ADP-Glo™+ITK” for “‘ADP-Glo™+BTK”, “25” for “10”

Molecules are shown by their SMILES.

T1 sequence (Q06187 whole entry): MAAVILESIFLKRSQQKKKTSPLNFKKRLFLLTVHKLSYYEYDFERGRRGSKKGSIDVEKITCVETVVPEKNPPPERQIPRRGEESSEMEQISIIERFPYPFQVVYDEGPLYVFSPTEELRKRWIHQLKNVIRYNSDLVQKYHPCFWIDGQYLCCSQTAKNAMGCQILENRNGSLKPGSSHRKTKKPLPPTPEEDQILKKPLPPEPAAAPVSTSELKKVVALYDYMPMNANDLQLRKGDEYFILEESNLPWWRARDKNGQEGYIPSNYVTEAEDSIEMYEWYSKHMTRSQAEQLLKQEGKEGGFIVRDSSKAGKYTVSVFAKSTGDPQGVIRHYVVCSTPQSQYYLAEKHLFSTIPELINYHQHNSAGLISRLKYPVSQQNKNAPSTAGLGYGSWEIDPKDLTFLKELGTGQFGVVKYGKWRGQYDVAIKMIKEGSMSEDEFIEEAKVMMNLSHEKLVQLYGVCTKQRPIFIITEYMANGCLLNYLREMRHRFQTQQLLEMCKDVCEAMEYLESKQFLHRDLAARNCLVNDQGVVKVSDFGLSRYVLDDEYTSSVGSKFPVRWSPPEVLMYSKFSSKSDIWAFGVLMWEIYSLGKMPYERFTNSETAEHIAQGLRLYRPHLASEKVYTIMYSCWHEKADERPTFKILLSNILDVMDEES

Consider `C=CC(=O)N1CCC[C@@H](n2nc(-c3ccc(C(=O)Nc4ccccn4)cc3Cl)c3c(N)nccc32)C1` [Example 56, (R)-4-(1-(1-acryloylpiperidin-3-yl)-4-amino-1H-pyrazolo[4,3-c]pyridin-3-yl)-3-chloro-N-(pyridin-2-yl)benzamide], for which the IC50 – broadly, the concentration that gives 50% inhibition – in test [1] was determined as 0.4 nM; in test [2], 0.6 nM.

`C=CC(=O)N1CC[C@H](n2nc(-c3ccc(C(=O)Nc4ccccc4)cc3)c3c(N)ncc(-c4cnn(C(F)F)c4)c32)C1` [Example 46, (S)-4-(1-(1-acryloylpyrrolidin-3-yl)-4-amino-7-(1-(difluoromethyl)-1H-pyrazol-4-yl)-1H-pyrazolo[4,3-c]pyridin-3-yl)-N-phenylbenzamide]: the half-maximal inhibitory concentration (IC50) was above 400 nM in test [1] and above 1000 nM in test [2].

On to `C=CC(=O)N1CCC[C@@H](n2nc(-c3ccc(C(=O)Nc4ccccc4)cc3)c3c(N)ncc(Br)c32)C1` [Example 24, (R)-4-(1-(1-acryloylpiperidin-3-yl)-4-amino-7-bromo-1H-pyrazolo[4,3-c]pyridin-3-yl)-N-phenyl benzamide], for which the IC50 in test [1] amounted to 1.2 nM; in test [2] it was 36.8 nM.

As for `C=CC(=O)N1CCC[C@@H](n2nc(-c3ccc(C(=O)Nc4ccccc4)cc3)c3c(N)ncc(-c4cnn(CCN5CCCC5)c4)c32)C1` [Example 37, (R)-4-(1-(1-acryloylpiperidin-3-yl)-4-amino-7-(1-(2-(pyrrolidin-1-yl)ethyl)-1H-pyrazol-4-yl)-1H-pyrazolo[4,3-c]pyridin-3-yl)-N-phenyl benzamide], the IC50 is 3 nM in test [1] and 91.3 nM in test [2].

Turning to `C=CC(=O)N1CCC[C@@H](n2nc(C(=O)Nc3nc4ccccc4o3)c3c(N)ncc(Cl)c32)C1` [Example 75, (R)-1-(1-acryloylpiperidin-3-yl)-4-amino-N-(benzo[d]oxazol-2-yl)-7-chloro-1H-pyrazolo[4,3-c]pyridine-3-carboxamide], the IC50 in test [1] came to 2.2 nM; in test [2] it was 2.4 nM.

Turning to `C=CC(=O)N1CCC(n2nc(-c3ccc(Oc4ccccc4)cc3)c3c(N)ncc(-c4cnn(C)c4)c32)CC1` [Example 13, 1-(4-(4-amino-7-(1-methyl-1H-pyrazol-4-yl)-3-(4-phenoxyphenyl)-1H-pyrazolo[4,3-c]pyridin-1-yl)piperidin-1-yl)prop-2-en-1-one], the 50% inhibitory concentration (IC50) is 5.1 nM in test [1] and above 1000 nM in test [2].

For the molecule `C=CC(=O)N1CCC[C@@H](n2nc(-c3ccc(C(=O)Nc4ccccc4)cc3)c3c(N)ncc(CO)c32)C1` [Example 27, (R)-4-(1-(1-acryloylpiperidin-3-yl)-4-amino-7-(hydroxymethyl)-1H-pyrazolo[4,3-c]pyridin-3-yl)-N-phenylbenzamide], the values for the 50% inhibitory concentration (IC50) in test [1] and in test [2] were 8 nM and above 500 nM, respectively.

In the case of `C=CC(=O)N1CCC[C@@H](n2nc(-c3ccc(C(=O)Nc4ccccn4)cc3F)c3c(N)nccc32)C1` [Example 40, (R)-4-(1-(1-acryloylpiperidin-3-yl)-4-amino-1H-pyrazolo[4,3-c]pyridin-3-yl)-3-fluoro-N-(pyridin-2-yl)benzamide], the IC50 was found to be 2.7 nM in test [1] and 6.4 nM in test [2].

On to `C=CC(=O)N1CCC[C@@H](n2nc(-c3ccc(C(=O)Nc4ccccc4)cc3)c3c(N)ncc(-c4cc[nH]n4)c32)C1` [Example 30, (R)-4-(1-(1-acryloylpiperidin-3-yl)-4-amino-7-(1H-pyrazol-5-yl)-1H-pyrazolo[4,3-c]pyridin-3-yl)-N-phenylbenzamide], for which the values for the IC50 in test [1] and in test [2] were 3 nM and 490 nM, respectively.

On to `C=CC(=O)N1CCC[C@@H](n2nc(-c3ccc(C(=O)Nc4ccccn4)cc3F)c3c(N)ncc(I)c32)C1` [Example 50, (R)-4-(1-(1-acryloylpiperidin-3-yl)-4-amino-7-iodo-1H-pyrazolo[4,3-c]pyridin-3-yl)-3-fluoro-N-(pyridin-2-yl)benzamide], for which the concentration for half-maximal inhibition (IC50) in test [1] worked out at 1.3 nM; in test [2] it was 2.1 nM.

Regarding `C=CC(=O)N1CCC[C@@H](n2nc(-c3ccc(Oc4ccccc4)cc3)c3c(N)ncc(I)c32)C1` [Example 16, (R)-1-(3-(4-amino-7-iodo-3-(4-phenoxyphenyl)-1H-pyrazolo[4,3-c]pyridin-1-yl)piperidin-1-yl)prop-2-en-1-one], the IC50 in test [1] came out at 1 nM; in test [2] it was 2.7 nM.

`C=CC(=O)N1CC2CC1C(n1nc(-c3ccc(Oc4ccccc4)cc3)c3c(N)ncc(-c4cnn(C)c4)c31)C2` (stereo not drawn) [Example 8, 1-(6-(4-amino-7-(1-methyl-1H-pyrazol-4-yl)-3-(4-phenoxyphenyl)-1H-pyrazolo[4,3-c]pyridin-1-yl)-2-azabicyclo[2.2.1]heptan-2-yl)prop-2-en-1-one]: the figures for the IC50 in test [1] and in test [2] were 7.3 nM and above 500 nM, respectively.

As to `C=CC(=O)N1CCC(n2nc(-c3ccc(Oc4ccccc4)cc3)c3c(N)ncc(/C=C/c4ccc(F)cc4)c32)CC1` [Example 15, (E)-1-(4-(4-amino-7-(4-fluorostyryl)-3-(4-phenoxyphenyl)-1H-pyrazolo[4,3-c]pyridin-1-yl)piperidin-1-yl)prop-2-en-1-one], the IC50 in test [1] is 3.7 nM; in test [2], above 500 nM.

Turning to `C=CC(=O)N1CCC[C@@H](n2nc(-c3ccc(C(=O)Nc4ccccn4)cc3Cl)c3c(N)ncc(C#N)c32)C1` [Example 66, (R)-4-(1-(1-acryloylpiperidin-3-yl)-4-amino-7-cyano-1H-pyrazolo[4,3-c]pyridin-3-yl)-3-chloro-N-(pyridin-2-yl)benzamide], the IC50 in test [1] and in test [2] was 1.3 nM in each case.

In the case of `C=CC(=O)N1CCC[C@@H](n2nc(-c3ccc(C(=O)Nc4ccccc4)cc3)c3c(N)ncc(-c4cn[nH]c4)c32)C1` [Example 28, (R)-4-(1-(1-acryloylpiperidin-3-yl)-4-amino-7-(1H-pyrazol-4-yl)-1H-pyrazolo[4,3-c]pyridin-3-yl)-N-phenylbenzamide], the IC50 in test [1] came to 4.4 nM; in test [2], 181 nM.

Turning to `C=CC(=O)N1CCC[C@@H](n2nc(-c3ccc(C(=O)Nc4ccccn4)cc3OC)c3c(N)ncc(Cl)c32)C1` [Example 59, (R)-4-(1-(1-acryloylpiperidin-3-yl)-4-amino-7-chloro-1H-pyrazolo[4,3-c]pyridin-3-yl)-3-methoxy-N-(pyridin-2-yl)benzamide], the half-maximal inhibitory concentration (IC50) was 3.7 nM in test [1] and 26 nM in test [2].

For the molecule `C=CC(=O)N1CCC[C@@H](n2nc(C(=O)Nc3nc4ccccc4o3)c3c(N)nccc32)C1` [Example 77, (R)-1-(1-acryloylpiperidin-3-yl)-4-amino-N-(benzo[d]oxazol-2-yl)-1H-pyrazolo[4,3-c]pyridine-3-carboxamide], the IC50 was 5 nM in test [1] and 13.1 nM in test [2].

`C=CC(=O)N1CCC[C@@H](n2nc(-c3ccc(C(=O)Nc4ccccn4)cc3OC)c3c(N)nccc32)C1` [Example 57, (R)-4-(1-(1-acryloylpiperidin-3-yl)-4-amino-1H-pyrazolo[4,3-c]pyridin-3-yl)-3-methoxy-N-(pyridin-2-yl)benzamide]: the IC50 in test [1] came out at 0.5 nM; in test [2] it was 11.4 nM.

As to `C=CC(=O)N1CCC[C@@H](n2nc(Br)c3c(N)nccc32)C1` [Example 62, (R)-1-(3-(4-amino-3-bromo-1H-pyrazolo[4,3-c]pyridin-1-yl)piperidin-1-yl)prop-2-en-1-one], the IC50 in test [1] is 6.3 nM; in test [2], 8.1 nM.

For `C=CC(=O)N1CCC[C@@H](n2nc(-c3ccc(C(=O)Nc4ccccn4)cc3)c3c(N)ncc(C)c32)C1` [Example 45, (R)-4-(1-(1-acryloylpiperidin-3-yl)-4-amino-7-methyl-1H-pyrazolo[4,3-c]pyridin-3-yl)-N-(pyridin-2-yl)benzamide], the values for the 50% inhibitory concentration (IC50) in test [1] and in test [2] were 11.2 nM and 66.8 nM, respectively.

Take `C=CC(=O)N1CC[C@H](n2nc(-c3ccc(C(=O)Nc4ccccc4)cc3)c3c(N)nccc32)C1` [Example 47, (S)-4-(1-(1-acryloylpyrrolidin-3-yl)-4-amino-1H-pyrazolo[4,3-c]pyridin-3-yl)-N-phenylbenzamide]: the concentration for half-maximal inhibition (IC50) was 180 nM in test [1] and above 1000 nM in test [2].
